Reference: patent publication US10285994B2, “Method of preventing or treating osteoporosis by neddylation inhibitor” (Chang Gung University, priority 2017, dated 2019)

Legend:
UBA3 = test: Western blot of UBA3 expression in RAW264.7 cells; format: cell-based, mouse; settings: siRNA-transfected RAW264.7, FIG. 5B
Protocol: (§1) FIGS. 5A-5D are the data respectively depicting the effect of sRANKL on the neddylation pathway and the knockdown effect of UBA3 siRNA on macrophages during osteoclast differentiation according to example 4 of the present disclosure. FIG. 5A: RAW264.7 mouse macrophages were seeded on wells and were treated with various concentrations of sRANKL (0-100 ng/ml). After 72 hours' incubation, the cells were lysed and subjected to Western blotting analysis using specific antibodies in neddylation pathway. FIG. 5B: RAW264.7 mouse macrophages were seeded on wells and transfected with UBA3 or scrambled siRNA. After culture, the transfected cells were harvested, lysed, and further analyzed by Western Blot for checking NEDD8, UBA3, and APPBP1 expressions. FIGS. 5C and 5D: the UBA3 or scrambled siRNA transfected RAW264.7 cells were further treated with sRANKL (50 ng/ml), after 3-day induction, the morphological change of macrophages to TRAP-stained positive giant osteoclasts were photographed and further counted. Data are expressed as mean±SD where *p<0.05.
The RAW264.7 cells were starved with serum-free medium for six hours and then treated with the specified treatments. At indicated time points, the cells were washed with cold phosphate-buffered saline (PBS) and lysed in RIPA buffer containing complete protease inhibitor cocktail (Roche). […]

RAW264.7 cells = test: UBA3 knockdown on osteoclast differentiation, count of TRAP-positive giant osteoclasts; format: cell-based, mouse; settings: siRNA-transfected RAW264.7, sRANKL 50 ng/ml, 3 days, FIG. 5C-5D
Protocol: as §1, with “*p<0.05. […]” for “*p<0.05.”
Six hours' post-transfection, the cells were treated with sRANKL (50 ng/ml). Three days later, the effect of UBA3 knockdown on mature giant osteoclast formation on wells was photographed and counted. […]

| Substance | knockdown of UBA3 expression (UBA3) | differentiating number of giant osteoclasts (RAW264.7 cells) |
| --- | --- | --- |
| UBA3 siRNA 2: siRNA targeting UBA3, sense SEQ ID NO: 3, anti-sense SEQ ID NO: 4 (sense GGAUCAAUGGAAUGCUGAUTT; antisense TTCCUAGUUACCUUACGACUA; chemistry not given here; one strand is listed 3' to 5') | can knockdown the expression of UBA3 | significantly diminished the differentiating number of giant osteoclasts |
| UBA3 siRNA 3: siRNA targeting UBA3, sense SEQ ID NO: 5, anti-sense SEQ ID NO: 6 (sense CCAAGCUCCAUUGUACCUUTT; antisense TTGGUUCGAGGUAACAUGGAA; chemistry not given here; one strand is listed 3' to 5') | can knockdown the expression of UBA3 | significantly diminished the differentiating number of giant osteoclasts |
